Results published in patent publication US20230365556A1, “N-ACYL AMINO ACID COMPOUNDS AND METHODS OF USE” (Pliant Therapeutics, Inc., priority 2016, published 2023).

Molecular target: αvβ1 integrin (αvβ1 expressing CHO cells) (Homo sapiens (Human), UniProt P05556+P06756)
Assay: Cell adhesion assay: inhibition of αvβ1 expressing CHO cells attaching to TGFβ1LAP
Assay type: cell-based
Settings: 1 h at 37° C., crystal violet absorbance 595 nm, read-out: αvβ1 Inhibition IC50 (nM)-range
Experimental: Example B1—Cell Adhesion Assay
In order to determine the potency, the compounds were assessed for their ability to inhibit αvβ1 expressing CHO cells attach to TGFβ1LAP. Microplates were coated overnight with 2 ug/ml TGFβ1LAP at 4° C., and blocked with 2% BSA/PBS for 30 min before the assay. Cells were detached and washed in PBS. After that the cells were resuspended in DMEM at 1.0×10^6 cells/ml, fifty microliter of cell suspension and fifty microliter of compound solution were added into the plate. The plates were incubated for one hour at 37° C. in humidified 5% carbon dioxide. Non-adherent cells were removed by centrifugation top side down at 58 g for 5 min. The attached cells were fixed and stained with 0.5% crystal violet (in 20% methanol and 1% formaldehyde) and the wells washed with PBS. Crystal violet was dissolved in 2% Triton-X in PBS. The relative number of cells in each well was evaluated by the absorbance at 595 nm in a microplate reader (Tecan). IC50 values were determined by non-linear regression with four parameters (Graphpad Prism 7.01, Y=Bottom+(Top−Bottom)/(1+10^((Log IC50−X)*HillSlope)).
The compounds tested were compound samples prepared according to procedures described in the Synthetic Examples section, with the stereochemical purity as indicated in the Examples indicated for Example or Compound No. 1-62. The compounds tested were predominantly S-configuration at the alpha carbon of the amino acid scaffold, except for compounds 123, 124, and 125 which were predominantly R-configuration at the alpha carbon of the amino acid scaffold. “Example or Compound No.” in Table B-1 refers to the compound illustrated in the examples for Example or Compound Nos. 1-62 (the compounds of Examples 1-62 are labeled as Compounds 1-62 in Table 1). “Example or Compound No.” in Table B-1 refers to the compound number as indicated in Table 1 or Table 2 for Example or Compound Nos. 63-126.

Chain of αvβ1 integrin (αvβ1 expressing CHO cells) (P06756 31-889): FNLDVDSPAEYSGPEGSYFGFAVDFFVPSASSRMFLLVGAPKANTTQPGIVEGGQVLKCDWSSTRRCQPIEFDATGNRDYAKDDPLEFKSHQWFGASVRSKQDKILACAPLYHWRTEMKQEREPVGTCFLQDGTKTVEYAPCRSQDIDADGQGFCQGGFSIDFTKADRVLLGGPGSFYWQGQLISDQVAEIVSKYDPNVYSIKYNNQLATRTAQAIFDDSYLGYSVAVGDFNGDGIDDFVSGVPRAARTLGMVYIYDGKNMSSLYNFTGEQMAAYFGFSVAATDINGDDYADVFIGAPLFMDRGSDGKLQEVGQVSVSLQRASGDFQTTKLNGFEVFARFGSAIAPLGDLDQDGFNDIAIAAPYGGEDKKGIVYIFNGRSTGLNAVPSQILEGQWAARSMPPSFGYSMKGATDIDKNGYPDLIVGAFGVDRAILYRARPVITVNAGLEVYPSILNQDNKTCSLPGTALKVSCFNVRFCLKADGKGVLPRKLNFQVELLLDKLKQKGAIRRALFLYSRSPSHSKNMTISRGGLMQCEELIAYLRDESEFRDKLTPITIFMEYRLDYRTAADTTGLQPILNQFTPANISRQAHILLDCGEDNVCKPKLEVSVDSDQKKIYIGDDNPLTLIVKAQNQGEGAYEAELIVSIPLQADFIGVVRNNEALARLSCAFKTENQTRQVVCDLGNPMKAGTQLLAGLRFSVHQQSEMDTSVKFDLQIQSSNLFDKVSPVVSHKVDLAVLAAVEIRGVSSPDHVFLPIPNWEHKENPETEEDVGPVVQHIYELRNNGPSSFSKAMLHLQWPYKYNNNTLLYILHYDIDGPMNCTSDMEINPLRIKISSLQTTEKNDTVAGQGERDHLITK
Chain of αvβ1 integrin (αvβ1 expressing CHO cells) (P06756 891-1048 partner): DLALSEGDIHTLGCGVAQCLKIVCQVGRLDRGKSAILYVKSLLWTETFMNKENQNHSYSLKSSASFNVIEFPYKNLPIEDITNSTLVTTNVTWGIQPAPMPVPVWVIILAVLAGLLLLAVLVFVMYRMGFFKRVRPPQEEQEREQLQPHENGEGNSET
Chain of αvβ1 integrin (αvβ1 expressing CHO cells) (P05556 21-798): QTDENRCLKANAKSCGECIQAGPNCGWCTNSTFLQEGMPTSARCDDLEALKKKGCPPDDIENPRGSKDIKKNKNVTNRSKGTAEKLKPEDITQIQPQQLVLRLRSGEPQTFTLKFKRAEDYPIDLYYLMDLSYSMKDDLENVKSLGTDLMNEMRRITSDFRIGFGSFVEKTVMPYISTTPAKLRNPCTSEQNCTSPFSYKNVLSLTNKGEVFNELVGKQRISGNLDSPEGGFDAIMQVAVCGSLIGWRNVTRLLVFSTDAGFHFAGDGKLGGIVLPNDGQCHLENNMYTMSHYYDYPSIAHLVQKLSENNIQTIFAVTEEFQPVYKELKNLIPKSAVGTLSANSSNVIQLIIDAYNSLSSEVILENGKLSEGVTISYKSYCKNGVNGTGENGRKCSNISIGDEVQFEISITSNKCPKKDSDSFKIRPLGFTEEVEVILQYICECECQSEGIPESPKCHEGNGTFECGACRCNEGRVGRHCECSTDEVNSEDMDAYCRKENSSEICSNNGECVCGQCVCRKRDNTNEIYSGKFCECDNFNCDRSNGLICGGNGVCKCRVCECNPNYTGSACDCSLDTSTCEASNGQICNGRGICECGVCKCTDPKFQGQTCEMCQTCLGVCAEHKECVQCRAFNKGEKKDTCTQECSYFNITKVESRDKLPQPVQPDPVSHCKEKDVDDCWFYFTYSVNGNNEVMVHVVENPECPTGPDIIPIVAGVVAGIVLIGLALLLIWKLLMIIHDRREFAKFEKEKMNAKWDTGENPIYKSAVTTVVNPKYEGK

Structure (SMILES)	IC50 [nM]
Nc1cc(C(=O)N[C@@H](Cc2ccc(OCCCc3ccc4c(n3)NCCC4)cc2)C(=O)O)ccc1O [Example 11, (S)-2-(3-amino-4-hydroxybenzamido)-3-(4-(3-(5,6,7,8-tetrahydro-1,8-naphthyridin-2-yl)propoxy)phenyl)propanoic acid]	50 to 250
Cn1cnc2cc(C(=O)N[C@@H](Cc3ccc(OCCCc4ccc5c(n4)NCCC5)cc3)C(=O)O)ccc21 [Example 9, (S)-2-(1-methyl-1H-benzo[d]imidazole-5-carboxamido)-3-(4-(3-(5,6,7,8-tetrahydro-1,8-naphthyridin-2-yl)propoxy)phenyl)propanoic acid]	50 to 250
O=C(N[C@@H](Cc1ccc(OCCCCNC2=NCCO2)cc1)C(=O)O)c1c(Cl)cccc1Cl [Example 61, (S)-2-(2,6-dichlorobenzamido)-3-(4-(4-((4,5-dihydrooxazol-2-yl)amino)butoxy)phenyl)propanoic acid]	50 to 250
O=C(N[C@@H](Cc1ccc(OCCCCNC2=NCCCO2)cc1)C(=O)O)c1c(Cl)cccc1Cl [Example 59, (S)-2-(2,6-dichlorobenzamido)-3-(4-(4-((5,6-dihydro-4H-1,3-oxazin-2-yl)amino)butoxy)phenyl)propanoic acid]	> 1000
O=C(N[C@@H](CCCCCCCc1ccc2c(n1)NCCC2)C(=O)O)c1cccc2[nH]ncc12 [Compound 116]	< 50
N#Cc1cc(Cl)c(C(=O)N[C@@H](Cc2ccc(OCCCc3ccc4c(n3)NCCC4)cc2)C(=O)O)c(Cl)c1 [Example 5, (S)-2-(2,6-dichloro-4-cyanobenzamido)-3-(4-(3-(5,6,7,8-tetrahydro-1,8-naphthyridin-2-yl)propoxy)phenyl)propanoic acid]	< 50
O=C(N[C@@H](Cc1ccc(N2CC(c3ccc4c(n3)NCCC4)C2)cc1)C(=O)O)c1c(Cl)cccc1Cl [Example 22, (S)-2-(2,6-dichlorobenzamido)-3-(4-(3-(5,6,7,8-tetrahydro-1,8-naphthyridin-2-yl)azetidin-1-yl)phenyl)propanoic acid]	< 50
O=C(N[C@@H](Cc1ccc(OCCCc2ccc3c(n2)NCCC3)cc1)C(=O)O)c1ccccc1 [Example 1, (S)-2-benzamido-3-(4-(3-(5,6,7,8-tetrahydro-1,8-naphthyridin-2-yl)propoxy)phenyl)propanoic acid]	< 50
O=C(N[C@@H](CCCCCCCc1ccc2c(n1)NCCC2)C(=O)O)c1ccc2nn(C(F)F)cc2c1 [Compound 106]	250 to 1000
O=C(NC(Cc1ccc(OCCCC2Cc3cccnc3N2)cc1)C(=O)O)c1c(Cl)cccc1Cl (centres unmarked) [Example 18, 2-(2,6-dichlorobenzamido)-3-(4-(3-(2,3-dihydro-1H-pyrrolo[2,3-b]pyridin-2-yl)propoxy)phenyl)propanoic acid]	< 50
O=C(N[C@@H](Cc1ccc(OCCCCNC2=NCCCS2)cc1)C(=O)O)c1c(Cl)cccc1Cl [Example 60, (S)-2-(2,6-dichlorobenzamido)-3-(4-(4-((5,6-dihydro-4H-1,3-thiazin-2-yl)amino)butoxy)phenyl)propanoic acid]	< 50
O=C(N[C@@H](Cc1ccc(OCCCc2ccc3c(n2)NCCC3)cc1)C(=O)O)c1cncc(-c2ccccc2)n1 [Example 4, (S)-2-(6-phenylpyrazine-2-carboxamido)-3-(4-(3-(5,6,7,8-tetrahydro-1,8-naphthyridin-2-yl)propoxy)phenyl)propanoic acid]	> 1000
Cn1ncc2cc(C(=O)N[C@@H](CCCCCCCc3ccc4c(n3)NCCC4)C(=O)O)ccc21 [Compound 104]	50 to 250
O=C(N[C@@H](Cc1ccc(OCCCCNC2=NCCNC2)cc1)C(=O)O)c1c(Cl)cccc1Cl [Example 56, (S)-2-(2,6-dichlorobenzamido)-3-(4-(4-((3,4,5,6-tetrahydropyrazin-2-yl)amino)butoxy)phenyl)propanoic acid]	250 to 1000
O=C(N[C@@H](CCCCCCCc1ccc2c(n1)NCCC2)C(=O)O)c1c(Cl)cccc1Cl [Example 19, (S)-2-(2,6-dichlorobenzamido)-9-(5,6,7,8-tetrahydro-1,8-naphthyridin-2-yl)nonanoic acid]	< 50
O=C(N[C@@H](CCCCCCCc1ccc2c(n1)NCCC2)C(=O)O)c1cn[nH]c1-c1ccccc1 [Compound 110]	50 to 250
Cn1ncc2cccc(C(=O)N[C@@H](CCCCCCCc3ccc4c(n3)NCCC4)C(=O)O)c21 [Compound 114]	< 50
O=C(N[C@@H](CCCCCCCc1ccc2c(n1)NCCC2)C(=O)O)c1ccc2c(cnn2C(F)F)c1 [Compound 107]	250 to 1000
Cc1nccc(C(=O)N[C@@H](Cc2ccc(OCCCc3ccc4c(n3)NCCC4)cc2)C(=O)O)n1 [Example 8, (S)-2-(2-methylpyrimidine-4-carboxamido)-3-(4-(3-(5,6,7,8-tetrahydro-1,8-naphthyridin-2-yl)propoxy)phenyl)propanoic acid]	50 to 250
O=C(N[C@@H](Cc1ccc(N2CC(Cc3ccc4c(n3)NCCC4)C2)cc1)C(=O)O)c1c(Cl)cccc1Cl [Example 21, (S)-2-(2,6-dichlorobenzamido)-3-(4-(3-((5,6,7,8-tetrahydro-1,8-naphthyridin-2-yl)methyl)azetidin-1-yl)phenyl)propanoic acid]	> 1000
O=C(N[C@@H](Cc1ccc(OCCCc2ccc3c(n2)NCCC3)cc1)C(=O)O)c1c(Cl)cccc1Cl [Example 16, (S)-2-(2,6-dichlorobenzamido)-3-(4-(3-(5,6,7,8-tetrahydro-1,8-naphthyridin-2-yl)propoxy)phenyl)propanoic acid]	< 50
O=C(N[C@@H](Cc1ccc(OCCCc2ccc3c(n2)NCCC3)cc1)C(=O)O)c1cnc(C(F)F)cn1 [Example 3, (S)-2-(5-(difluoromethyl)pyrazine-2-carboxamido)-3-(4-(3-(5,6,7,8-tetrahydro-1,8-naphthyridin-2-yl)propoxy)phenyl)propanoic acid]	< 50

Second part, the compound after the results:

IC50 [nM]	Structure (SMILES)
> 1000	CN1CC(NCCCCCCCC[C@H](NC(=O)c2c(Cl)cccc2Cl)C(=O)O)=NCC1=O [Example 52, (S)-2-(2,6-dichlorobenzamido)-10-((4-methyl-5-oxo-3,4,5,6-tetrahydropyrazin-2-yl)amino)decanoic acid]
> 1000	CN1C(=O)CN=C1NCCCCCCCC[C@H](NC(=O)c1c(Cl)cccc1Cl)C(=O)O [Example 50, (S)-2-(2,6-dichlorobenzamido)-10-((1-methyl-5-oxo-4,5-dihydro-1H-imidazol-2-yl)amino)decanoic acid]
< 50	CC(OCCc1ccc2c(n1)NCCC2)c1ccc(C[C@H](NC(=O)c2c(Cl)cccc2Cl)C(=O)O)cc1 (stereo partly drawn) [Example 33, (2S)-2-(2,6-dichlorobenzamido)-3-(4-(1-(2-(5,6,7,8-tetrahydro-1,8-naphthyridin-2-yl)ethoxy)ethyl)phenyl)propanoic acid]
> 1000	O=C(N[C@@H](CCCCCCCCNC1=NCCCO1)C(=O)O)c1c(Cl)cccc1Cl [Example 51, (S)-2-(2,6-dichlorobenzamido)-10-((5,6-dihydro-4H-1,3-oxazin-2-yl)amino)decanoic acid]
< 50	O=C(N[C@@H](Cc1ccc(OCCCC2CCc3cccnc3N2)cc1)C(=O)O)c1c(Cl)cccc1Cl (stereo partly drawn) [Example 27, (2S)-2-(2,6-dichlorobenzamido)-3-(4-(3-(1,2,3,4-tetrahydro-1,8-naphthyridin-2-yl)propoxy)phenyl)propanoic acid]
50 to 250	O=C(NC(Cc1ccc(OCC2CCC(Nc3ccccn3)CC2)cc1)C(=O)O)c1c(Cl)cccc1Cl [Example 25, (S)-2-(2,6-dichlorobenzamido)-3-(4-(((1s,4R)-4-(pyridin-2-ylamino)cyclohexyl)methoxy)phenyl)propanoic acid]
> 1000	O=C(N[C@@H](Cc1ccc(O[C@H]2CC[C@H](Nc3ccccn3)CC2)cc1)C(=O)O)c1c(Cl)cccc1Cl [Example 39, (2S)-2-[(2,6-dichlorobenzoyl)amino]-3-[4-[4-trans-(2-pyridylamino)cyclohexoxy]phenyl]propanoic acid]
< 50	Cn1ncc2cc(C(=O)N[C@@H](Cc3ccc(OCCCc4ccc5c(n4)NCCC5)cc3)C(=O)O)ccc21 [Example 43, (2S)-2-[(1-methylindazole-5-carbonyl)amino]-3-[4-[3-(5,6,7,8-tetrahydro-1,8-naphthyridin-2-yl)propoxy]phenyl]propanoic acid]
250 to 1000	O=C(N[C@@H](Cc1cccc(OCCCc2ccc3c(n2)NCCC3)c1)C(=O)O)c1c(Cl)cccc1Cl [Example 37, (2S)-2-((2,6-dichlorobenzoyl)amino)-3-(3-(3-(5,6,7,8-tetrahydro-1,8-naphthyridin-2-yl)propoxy)phenyl)propanoic acid]
< 50	Cn1cc2ccc(C(=O)N[C@@H](Cc3ccc(OCCCc4ccc5c(n4)NCCC5)cc3)C(=O)O)cc2n1 [Example 44, (2S)-2-[(2-methylindazole-6-carbonyl)amino]-3-[4-[3-(5,6,7,8-tetrahydro-1,8-naphthyridin-2-yl)propoxy]phenyl]propanoic acid]
